Test results from ChEMBL document CHEMBL2429773, “Synthesis and antiseizure evaluation of isoindoline-1,3-dione derivatives in mice” (Med Chem Res, 2013).

Key:
Mus musculus [1] = test: Anticonvulsant activity in albino mouse assessed as protection against subcutaneous pentylenetetrazole-induced death measured as mortality at 300 mg/kg, ip after 0.5 hr; format: functional; conditions: sc, route intraperitoneal
Mus musculus [2] = test: Anticonvulsant activity in albino mouse assessed as protection against subcutaneous pentylenetetrazole-induced death measured as mortality at 100 mg/kg, ip after 0.5 hr; format: functional; conditions: sc, route intraperitoneal
Mus musculus [3] = test: Anticonvulsant activity in albino mouse assessed as protection against subcutaneous pentylenetetrazole-induced death measured as mortality at 30 mg/kg, ip after 0.5 hr; format: functional; conditions: sc
Mus musculus [4] = test: Anticonvulsant activity against subcutaneous pentylenetetrazole-induced seizures in albino mouse assessed as seizure at 100 mg/kg, ip after 0.5 hr; format: functional
Mus musculus [5] = test: Anticonvulsant activity against subcutaneous pentylenetetrazole-induced seizures in albino mouse assessed as onset of seizure time at 300 mg/kg, ip after 0.5 hr; format: functional; conditions: route intraperitoneal
Mus musculus [6] = test: Anticonvulsant activity against subcutaneous pentylenetetrazole-induced seizures in albino mouse assessed as onset of seizure time at 100 mg/kg, ip after 0.5 hr; format: functional; conditions: route intraperitoneal
Mus musculus [7] = test: Anticonvulsant activity against subcutaneous pentylenetetrazole-induced seizures in albino mouse assessed as onset of seizure time at 30 mg/kg, ip after 0.5 hr; format: functional; conditions: route intraperitoneal
Mus musculus [8] = test: Anticonvulsant activity against subcutaneous pentylenetetrazole-induced seizures in albino mouse assessed as duration of seizure time at 300 mg/kg, ip after 0.5 hr; format: functional; conditions: route intraperitoneal
Mus musculus [9] = test: Anticonvulsant activity against subcutaneous pentylenetetrazole-induced seizures in albino mouse assessed as duration of seizure time at 100 mg/kg, ip after 0.5 hr; format: functional; conditions: route intraperitoneal
Mus musculus [10] = test: Anticonvulsant activity against subcutaneous pentylenetetrazole-induced seizures in albino mouse assessed as duration of seizure time at 30 mg/kg, ip after 0.5 hr; format: functional; conditions: route intraperitoneal
[11] = Neurotoxicity in ip dosed albino mouse measured after 30 mins by rotarod method; format: toxicity, organism-based; conditions: in vivo
Mus musculus [12] = test: Protective index, ratio of TD50 for neurotoxicity in ip dosed albino mouse to ED50 for anticonvulsant activity in ip dosed albino mouse; format: functional
Mus musculus [13] = test: Anticonvulsant activity in ip dosed albino mouse assessed as protection against maximal electroshock-induced seizures after 0.5 hr; format: functional
Mus musculus [14] = test: Anticonvulsant activity against maximal electroshock-induced seizure in albino mouse assessed as seizures at 300 mg/kg, ip after 0.5 hr; format: functional; conditions: route intraperitoneal
Mus musculus [15] = test: Anticonvulsant activity against maximal electroshock-induced seizures in albino mouse assessed as seizure at 100 mg/kg, ip after 0.5 hr; format: functional; conditions: route intraperitoneal
Mus musculus [16] = test: Anticonvulsant activity against maximal electroshock-induced seizures in albino mouse assessed as seizure at 30 mg/kg, ip after 0.5 hr; format: functional; conditions: route intraperitoneal

Compound | mortality at 300 mg/kg (Mus musculus [1]) [%] | mortality at 100 mg/kg (Mus musculus [2]) [%] | mortality at 30 mg/kg (Mus musculus [3]; route intraperitoneal) [%] | Activity (Mus musculus [4]; route intraperitoneal) [%] | Time (Mus musculus [5]) [min] | Time (Mus musculus [6]) [min] | Time (Mus musculus [7]) [min] | Time (Mus musculus [8]) [min] | Time (Mus musculus [9]) [min] | Time (Mus musculus [10]) [min] | TD50 at 0.5 h [11] [mg/kg] | Ratio TD50/ED50 (Mus musculus [12]) | ED50 (Mus musculus [13]) [mg/kg] | Activity (Mus musculus [14]) [%] | Activity (Mus musculus [15]) [%] | Activity (Mus musculus [16]) [%] | mortality at 30 mg/kg (Mus musculus [3]) [%] | Activity (Mus musculus [4]; ROUTE) [%]
O=C1c2ccccc2C(=O)N1c1ccc(F)cc1 | 0 | 25 | 25 | 100 | 15.25 | 8.5 | 3 | 23.5 | 23.75 | 13.25 | 182 | <0.6 | > 300 | 75 | 100 | 100 |  | 
O=C1c2ccccc2C(=O)N1c1cccc([N+](=O)[O-])c1 | 75 | 100 | 100 | 100 | 10.5 | 4.5 | 3.5 | 18.25 | 16.5 | 6 | 74.2 | 0.42 | 174 | 25 | 75 | 100 |  | 
O=C1c2ccccc2C(=O)N1c1ccc([N+](=O)[O-])cc1 | 75 | 75 | 75 | 100 | 6.25 | 4 | 3.5 | 15.5 | 11.75 | 5.75 | 176 | 2.81 | 62.3 | 25 | 25 | 100 |  | 
COc1ccccc1N1C(=O)c2ccccc2C1=O | 75 | 100 | 100 | 100 | 7.25 | 5.75 | 2.75 | 13.5 | 9.75 | 9.75 | 222 | 1.14 | 195 | 25 | 100 | 100 |  | 
O=C1c2ccccc2C(=O)N1c1ccccc1[N+](=O)[O-] | 75 | 0 | 100 | 100 | 8.75 | 7.5 | 2 | 18 | 22.5 | 7 | > 300 | >5.6 | 53.5 | 0 | 25 | 75 |  | 
CN1C(=O)CN=C(c2ccccc2)c2cc(Cl)ccc21 [DIAZEPAM] |  |  |  |  |  |  |  |  |  |  |  |  | 1.8 |  |  |  | 0 | 0
O=C1c2ccccc2C(=O)N1c1ccccc1 [N-PHENYL-PHTHALIMIDE] | 25 | 100 | 100 | 100 | 6 | 4.5 | 3.25 | 15.75 | 11 | 3.75 | > 300 | >4.53 | 66.2 | 0 | 25 | 100 |  | 
